The nature of data set [1]: Photolysis (uncaging) kinetics under blue/green LED irradiation; quantum yield by UV and 1H NMR with ferrioxalate actinometry. The format is physicochemical. The following applies: for Φ (quantum yield / QE of uncaging): irradiation at 467 nm (TC) or 520 nm (BODIPY), LED flux 12.8 Wm-2, 23° C.; for εΦ (photo-cross-section): product of ε and Φ; for wavelength of visible light that activates / uncages the cage: single photon visible light. The protocol:
(§1) After purification, the organic solvent was removed by rotovap under vacuum and the remaining aqueous concentrate was subjected to a freeze-drying system (lyophilizer-Freezone 4.5 made by LABCONCO) to isolate the purified final product. The preparation of the caged compounds and their corresponding purifications were conducted under red light in the dark. Final products were covered with aluminum foil and stored at −20° C. until further needed. Each product was characterized by Proton Nuclear Magnetic Resonance (hereinafter “1H NMR”) and Carbon-13 Nuclear Magnetic Resonance (hereinafter “^13C NMR”) using Bruker 400 MHZ NMR spectrometer instrumentation. NMR solvents such as CDCl3 and (CD3)2CO were purchased from the Cambridge Isotope Laboratories. Chemical shifts were reported relative to the internal standard peak of tetramethylsilane (TMS). […] Referring to FIG. 10, irradiation rigs constructed of two round metal containers stacked with blue LED strips (467 nm) and green LED strips (520 nm) on their inner walls were used as photoreactors to irradiate the caged molecules in photochemical studies. The light flux was determined using liquid-phase potassium ferrioxalate actinomentry.
The inventors studied the kinetics of uncaging of the two caged Glu designs (TC and BODIPY) and compared their efficiency of uncaging under identical conditions. They were irradiated with blue light at 467 nm and green light at 520 nm, respectively. Referring to FIG. 10, a temperature-controlled rig with purchased LED strips was set up.
The process for conducting the irradiation experiments comprised the following:
Sample Preparation: The caged molecules (containing the BODIPY photocage and Glutamate) were prepared in a solvent at a predetermined concentration. The solution was carefully prepared to ensure uniform dispersion of the molecules.
Irradiation Setup: The irradiation experiments were performed in a custom-built irradiation chamber equipped with the necessary safety measures (FIG. 10). The chamber was designed to prevent any unwanted exposure to the irradiation source and to maintain a controlled environment throughout the experiment.
Irradiation Source: The irradiation source used was from LED light Strips. This source was selected based on its wavelength range, intensity, and compatibility with the caged molecules' photochemistry. The source was positioned within the irradiation chamber to ensure an even and consistent illumination of the sample.
Sample Exposure: The sample solution was placed in a suitable container, ensuring that the solution thickness was uniform to minimize potential variations in the irradiation process. The container was positioned at a specific distance from the irradiation source, and the entire setup was shielded from external light sources to prevent interference.
Irradiation Protocol: The sample was irradiated for a predetermined duration, with the irradiation source emitting light at the desired wavelength range. The irradiation time was carefully controlled to maintain consistency across experiments.
Monitoring and Data Collection: Throughout the irradiation process, the changes in the sample's properties were monitored using spectroscopic techniques such as UV-Vis spectroscopy and NMR spectroscopy, depending on the specific properties being investigated. Data was collected at regular intervals to track the progress of the photochemical reaction.
Control Experiments: To validate the effects of irradiation, control experiments were conducted using identical conditions but without the presence of the caged molecules.
The quantification of the laser flux comprised the following:
A liquid-phase potassium ferrioxalate actinometer was prepared to measure the intensity of light in our irradiation rig, i.e., light flux, necessary for measurement of the quantum yields of various photochemical reactions.

The nature of data set [2]: UV-Vis absorption of caged Glu compounds. Format: physicochemical. As to conditions: for λMax: maximum absorbance wavelength; for ε(λMax): molar attenuation constant at λMax. The protocol: as §1
Referring to FIG. 6, a comprehensive assessment of 11 visible light-activated caged Glutamate (Glu) compounds was conducted using photophysical methods.

For data set [3] the following is noted: prior art caged Glu; cited from earlier work.

Regarding “7-Diethylamino-4-carboxylmethyl-thiocoumarin glutamate [TC-N-Glu (1)]”, in data set [1], the “Φ (quantum yield / QE of uncaging)” value was determined as 0.0017 ± 0.0002, the “εΦ (photo-cross-section)” value came to 38.2 M⁻¹ cm⁻¹ and the “wavelength of visible light that activates / uncages the cage” value is listed as 445 nm. In data set [2], the λMax was found to be 461 nm and the “ε(λMax)” value was 21800 ± 100 M⁻¹ cm⁻¹.

On to `N[C@@H](CCC(=O)N1CCc2c(OCC(=O)O)c([N+](=O)[O-])cc([N+](=O)[O-])c21)C(=O)O` [CDNI-Glu], for which, in data set [3], the absorption maximum is listed as 350 nm and the “quantum yield (Φ)” value was 0.5.

As for `CC1=C(Br)C(C)=[N+]2C1=C(COC(=O)CCC(N)C(=O)O)c1c(C)c(Br)c(C)n1[B-]2(F)F` (centres unmarked) [F-BODIPY-Br-Glu (11), 2-Amino-5-((2,8-dibromo-5,5-difluoro-1,3,7,9-tetramethyl-5H-414,514-dipyrrolo[1,2-c: 2′, 1′-f] [1,3,2]diazaborinin-10-yl)methoxy)-5-oxopentanoic acid], in data set [1], the “Φ (quantum yield / QE of uncaging)” value amounted to 0.0004 ± 0.00001 and the “εΦ (photo-cross-section)” value came to 4.2 M⁻¹ cm⁻¹. For the same molecule, in data set [2], the λMax was 544 nm and the “ε(λMax)” value is 10300 ± 80 M⁻¹ cm⁻¹.

For `CCC1=C(C)C2=C(COC(=O)CCC(N)C(=O)O)c3c(C)c(CC)c(C)n3[B-](F)(F)[N+]2=C1C` (centres unmarked) [F-BODIPY-Et-Glu (10), 2-Amino-5-((2,8-diethyl-5,5-difluoro-1,3,7,9-tetramethyl-5H-414,514-dipyrrolo[1,2-c: 2′, 1′-f] [1,3,2]diazaborinin-10-yl)methoxy)-5-oxopentanoic acid], in data set [1], the “Φ (quantum yield / QE of uncaging)” value is listed as 0.0077 ± 0.0004 and the “εΦ (photo-cross-section)” value was 439.0 M⁻¹ cm⁻¹. Also, in data set [2], the λMax was 542 nm and the “ε(λMax)” value turned out to be 57200 ± 280 M⁻¹ cm⁻¹.

For the molecule `CCC1=C(C)C2=C(COC(=O)NC(CCC(=O)O)C(=O)O)c3c(C)c(CC)c(C)n3[B-](F)(F)[N+]2=C1C` (centres unmarked) [F-BODIPY-Et-N-Glu (5), (((2,8-Diethyl-5,5-difluoro-1,3,7,9-tetramethyl-5H-414,514-dipyrrolo[1,2-c: 2′, 1′-f] [1,3,2]diazaborinin-10-yl)methoxy)carbonyl) glutamic acid], in data set [1], the “Φ (quantum yield / QE of uncaging)” value worked out at 0.0001 ± 0.00001 and the “εΦ (photo-cross-section)” value is 10.9 M⁻¹ cm⁻¹. In addition, in data set [2], the λMax worked out at 542 nm and the “ε(λMax)” value came to 78300 ± 400 M⁻¹ cm⁻¹.

Consider `CC1=CC(C)=[N+]2C1=C(COC(=O)CCC(N)C(=O)O)c1c(C)cc(C)n1[B-]2(F)F` (centres unmarked) [F-BODIPY-H-Glu (9), 2-Amino-5-((5,5-difluoro-1,3,7,9-tetramethyl-5H-414,514-dipyrrolo[1,2-c: 2′, 1′-f] [1,3,2]diazaborinin-10-yl)methoxy)-5-oxopentanoic acid], for which, in data set [1], the “Φ (quantum yield / QE of uncaging)” value is given as 0.0001 ± 0.00002 and the “εΦ (photo-cross-section)” value was determined as 4.7 M⁻¹ cm⁻¹. In addition, in data set [2], the λMax is 517 nm and the “ε(λMax)” value is 84600 ± 500 M⁻¹ cm⁻¹.

Turning to `CC1=C(Br)C(C)=[N+]2C1=C(COC(=O)CCC(N)C(=O)O)c1c(C)c(Br)c(C)n1[B-]2(C)C` (centres unmarked) [Me-BODIPY-Br-Glu (8), 2-Amino-5-((2,8-dibromo-1,3,5,5,7,9-hexamethyl-5H-414,514-dipyrrolo[1,2-c: 2′, 1′-f] [1,3,2]diazaborinin-10-yl)methoxy)-5-oxopentanoic acid], in data set [1], the “Φ (quantum yield / QE of uncaging)” value amounted to 0.65 ± 0.01, the “εΦ (photo-cross-section)” value was 35230.0 M⁻¹ cm⁻¹ and the “wavelength of visible light that activates / uncages the cage” value is on record as 540 nm. For the same molecule, in data set [1] (8), the “Φ (quantum yield / QE of uncaging)” value worked out at 0.65. In data set [1] (listed as Me-BODIPY-Br-Glu), the “Φ (quantum yield / QE of uncaging)” value amounted to 0.65. Moreover, in data set [2], the λMax is 531 nm and the “ε(λMax)” value is 54200 ± 240 M⁻¹ cm⁻¹.

For the molecule `CC1=C(Br)C(C)=[N+]2C1=C(COC(=O)NC(CCC(=O)O)C(=O)O)c1c(C)c(Br)c(C)n1[B-]2(C)C` (centres unmarked) [Me-BODIPY-Br-N-Glu (3), (((2,8-Dibromo-1,3,5,5,7,9-hexamethyl-5H-414,514-dipyrrolo[1,2-c: 2′, 1′-f] [1,3,2]diazaborinin-10-yl)methoxy)carbonyl) glutamic acid], in data set [1], the “Φ (quantum yield / QE of uncaging)” value is given as 0.12 ± 0.04 and the “εΦ (photo-cross-section)” value is 985.6 M⁻¹ cm⁻¹. Besides, in data set [2], the λMax was 532 nm and the “ε(λMax)” value came out at 8213 ± 50 M⁻¹ cm⁻¹.

In the case of `CCC1=C(C)C2=C(COC(=O)CCC(N)C(=O)O)c3c(C)c(CC)c(C)n3[B-](C)(C)[N+]2=C1C` (centres unmarked) [Me-BODIPY-Et-Glu (7), 2-Amino-5-((2,8-diethyl-1,3,5,5,7,9-hexamethyl-5H-414,514-dipyrrolo[1,2-c: 2′, 1′-f] [1,3,2]diazaborinin-10-yl)methoxy)-5-oxopentanoic acid], in data set [1], the “Φ (quantum yield / QE of uncaging)” value came to 0.029 ± 0.001 and the “εΦ (photo-cross-section)” value was 1040.0 M⁻¹ cm⁻¹. Besides, in data set [2], the λMax is reported as 532 nm and the “ε(λMax)” value came out at 35700 ± 180 M⁻¹ cm⁻¹.

Consider `CCC1=C(C)C2=C(COC(=O)NC(CCC(=O)O)C(=O)O)c3c(C)c(CC)c(C)n3[B-](C)(C)[N+]2=C1C` (centres unmarked) [Me-BODIPY-Et-N-Glu (2), (((2,8-Diethyl-1,3,5,5,7,9-hexamethyl-5H-414,514-dipyrrolo[1,2-c: 2′, 1′-f] [1,3,2]diazaborinin-10-yl)methoxy)carbonyl) glutamic acid], for which, in data set [1], the “Φ (quantum yield / QE of uncaging)” value is 0.095 ± 0.003 and the “εΦ (photo-cross-section)” value worked out at 2270.0 M⁻¹ cm⁻¹. In data set [2], the λMax stood at 532 nm and the “ε(λMax)” value was 24000 ± 120 M⁻¹ cm⁻¹.

Consider `CC1=CC(C)=[N+]2C1=C(COC(=O)CCC(N)C(=O)O)c1c(C)cc(C)n1[B-]2(C)C` (centres unmarked) [Me-BODIPY-H-Glu (6), 2-Amino-5-((1,3,5,5,7,9-hexamethyl-5H-414,514-dipyrrolo[1,2-c: 2′, 1′-f] [1,3,2]diazaborinin-10-yl)methoxy)-5-oxopentanoic acid], for which, in data set [1], the “Φ (quantum yield / QE of uncaging)” value is given as 0.074 ± 0.002 and the “εΦ (photo-cross-section)” value was found to be 3230.0 M⁻¹ cm⁻¹. Besides, in data set [2], the λMax is on record as 511 nm and the “ε(λMax)” value is 43600 ± 200 M⁻¹ cm⁻¹.

Consider `CC1=C(I)C(C)=[N+]2C1=C(COC(=O)NC(CCC(=O)O)C(=O)O)c1c(C)c(I)c(C)n1[B-]2(C)C` (centres unmarked) [Me-BODIPY-I-N-Glu (4), (((2,8-Diiodo-1,3,5,5,7,9-hexamethyl-5H-414,514-dipyrrolo[1,2-c: 2′, 1′-f] [1,3,2]diazaborinin-10-yl)methoxy)carbonyl) glutamic acid], for which, in data set [1], the “Φ (quantum yield / QE of uncaging)” value came to 0.15 ± 0.01 and the “εΦ (photo-cross-section)” value worked out at 1504.6 M⁻¹ cm⁻¹. For the same molecule, in data set [2], the λMax is given as 536 nm and the “ε(λMax)” value is 10030 ± 70 M⁻¹ cm⁻¹.

These data come from patent US20250257045A1, “CAGED GLUTAMATE UNLEASHED BY BLUE AND GREEN LIGHT: INNOVATIVE PHOTOSENSITIVE CONTROL” (Florida Institute of Technology, Inc., priority 2024, published 2025).
